We go through 2 compounds from ChEMBL document CHEMBL1156502, “Stabilized immune modulatory RNA compounds as agonists of Toll-like receptors 7 and 8” (Proc Natl Acad Sci U S A, 2007).

Data set [1] relates to spleen. The experiment in a line: Induction of chemokine secretion in C57BL/6 mouse spleen cells 100 ug/ml after 24 hrs by Luminex Multiplex assay. It counts as functional, cell-based.
Data set [2] addresses T1, Toll-like receptor 7 (Homo sapiens) (UniProt Q9NYK1).
T1 sequence (whole entry): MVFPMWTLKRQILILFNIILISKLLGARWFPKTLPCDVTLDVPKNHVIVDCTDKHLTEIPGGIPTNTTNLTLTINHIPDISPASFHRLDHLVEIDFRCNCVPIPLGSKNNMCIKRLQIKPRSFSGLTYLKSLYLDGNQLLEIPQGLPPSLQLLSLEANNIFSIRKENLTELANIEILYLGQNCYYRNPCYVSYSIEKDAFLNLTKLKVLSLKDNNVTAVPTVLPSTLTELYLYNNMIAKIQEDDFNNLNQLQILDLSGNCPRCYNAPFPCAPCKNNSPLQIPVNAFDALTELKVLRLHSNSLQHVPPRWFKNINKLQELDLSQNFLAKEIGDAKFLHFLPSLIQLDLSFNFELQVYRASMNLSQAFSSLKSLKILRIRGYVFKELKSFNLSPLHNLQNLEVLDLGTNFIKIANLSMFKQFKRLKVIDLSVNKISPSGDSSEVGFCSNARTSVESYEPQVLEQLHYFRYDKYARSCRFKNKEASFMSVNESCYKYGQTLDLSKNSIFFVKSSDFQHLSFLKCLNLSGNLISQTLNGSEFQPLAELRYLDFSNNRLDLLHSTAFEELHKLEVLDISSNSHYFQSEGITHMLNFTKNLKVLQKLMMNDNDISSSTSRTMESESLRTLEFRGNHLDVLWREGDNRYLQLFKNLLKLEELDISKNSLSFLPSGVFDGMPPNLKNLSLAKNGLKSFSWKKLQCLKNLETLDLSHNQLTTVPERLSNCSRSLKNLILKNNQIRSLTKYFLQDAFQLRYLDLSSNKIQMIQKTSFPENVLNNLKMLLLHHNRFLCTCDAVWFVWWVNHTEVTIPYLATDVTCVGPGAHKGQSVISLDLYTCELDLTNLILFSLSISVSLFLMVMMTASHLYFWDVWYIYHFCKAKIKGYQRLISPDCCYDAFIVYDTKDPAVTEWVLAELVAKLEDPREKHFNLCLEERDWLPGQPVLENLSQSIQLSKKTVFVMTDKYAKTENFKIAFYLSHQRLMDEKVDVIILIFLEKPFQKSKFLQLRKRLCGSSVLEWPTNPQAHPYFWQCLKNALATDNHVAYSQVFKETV
The experiment in a line: Activation of human TLR7 expressed in HEK293 cells assessed as increase in NF-kappaB activation at 100 ug/ml by SEAP assay. It is filed as cell-based.

The test system of another data set is Dendritic cell. The experiment in a line: Induction of IFNalpha secretion in human plasmacytoid dendritic cells at 200 ug/ml after 24 hrs by Luminex Multiplex assay. It is filed as functional.
For data set [3], the target named is T2, Toll-like receptor 8 (Homo sapiens) (UniProt Q9NR97).
T2 sequence (whole entry): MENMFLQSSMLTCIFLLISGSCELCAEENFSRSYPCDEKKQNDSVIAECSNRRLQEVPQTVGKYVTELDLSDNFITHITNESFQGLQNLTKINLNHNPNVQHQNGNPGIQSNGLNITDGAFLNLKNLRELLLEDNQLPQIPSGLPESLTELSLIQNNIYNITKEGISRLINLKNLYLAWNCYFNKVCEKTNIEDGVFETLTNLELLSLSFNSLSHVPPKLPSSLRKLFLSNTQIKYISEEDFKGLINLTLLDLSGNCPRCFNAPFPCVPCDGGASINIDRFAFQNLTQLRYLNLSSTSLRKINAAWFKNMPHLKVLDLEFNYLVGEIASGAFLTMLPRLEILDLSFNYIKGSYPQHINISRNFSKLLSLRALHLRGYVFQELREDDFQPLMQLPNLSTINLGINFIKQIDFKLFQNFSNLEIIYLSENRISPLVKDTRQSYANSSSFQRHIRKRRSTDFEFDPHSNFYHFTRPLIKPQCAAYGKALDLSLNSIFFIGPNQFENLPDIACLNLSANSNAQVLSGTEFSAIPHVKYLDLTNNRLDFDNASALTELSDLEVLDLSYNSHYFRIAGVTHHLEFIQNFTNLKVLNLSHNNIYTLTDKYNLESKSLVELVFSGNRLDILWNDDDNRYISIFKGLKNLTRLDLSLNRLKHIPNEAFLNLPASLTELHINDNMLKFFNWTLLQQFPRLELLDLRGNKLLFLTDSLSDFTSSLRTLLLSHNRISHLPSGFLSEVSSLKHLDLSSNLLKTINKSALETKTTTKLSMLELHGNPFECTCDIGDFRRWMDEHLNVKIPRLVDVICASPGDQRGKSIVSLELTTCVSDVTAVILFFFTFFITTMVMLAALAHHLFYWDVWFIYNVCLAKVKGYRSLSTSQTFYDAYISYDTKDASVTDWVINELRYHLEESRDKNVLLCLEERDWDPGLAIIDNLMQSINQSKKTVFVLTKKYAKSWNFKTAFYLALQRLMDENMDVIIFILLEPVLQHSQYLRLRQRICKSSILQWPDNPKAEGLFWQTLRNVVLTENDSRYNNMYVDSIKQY
The experiment in a line: Activation of human TLR8 expressed in HEK293 cells assessed as increase in NF-kappaB activation at 100 ug/ml by SEAP assay. It counts as cell-based.

Data set [4] has as its system spleen. In words: Induction of cytokine secretion in C57BL/6 mouse spleen cells at 100 ug/ml after 24 hrs by Luminex Multiplex assay. It is filed as functional, cell-based.
Data set [5] concerns PBMC. The experiment in a line: Induction of IL12 secretion in human PBMC after 24 hrs by Luminex Multiplex assay. It is filed as functional, cell-based.
In data set [6] the test system is PBMC. In words: Induction of IFN-gamma secretion in human PBMC after 24 hrs by Luminex Multiplex assay. It counts as functional, cell-based.
The subject of data set [7] is PBMC. The experiment in a line: Induction of IL10 secretion in human PBMC after 24 hrs by Luminex Multiplex assay. It counts as functional, cell-based.
Data set [8] is described as follows: Stability in 1% human serum assessed as full length product after 10 mins. The following applies: read-out: Stability. It is filed as ADME, cell-free.
For data set [9], the system named is PBMC. The experiment in a line: Induction of IL2R secretion in human PBMC after 24 hrs by Luminex Multiplex assay. It counts as functional, cell-based.
In data set [10] the test system is PBMC. The experiment in a line: Induction of IFNalpha secretion in human PBMC after 24 hrs by Luminex Multiplex assay. It is filed as functional, cell-based.
Data set [11] relates to PBMC. In words: Induction of IL1-beta secretion in human PBMC after 24 hrs by Luminex Multiplex assay. It counts as functional, cell-based.

The source made the active and inactive calls. No cut-off for these calls is given here.

On to `Nc1ccn([C@@H]2O[C@H](COP(O)(=S)O[C@H]3[C@@H](O)[C@H](n4ccc(=O)[nH]c4=O)O[C@@H]3COP(O)(=S)O[C@H]3[C@@H](O)[C@H](n4ccc(=O)[nH]c4=O)O[C@@H]3COP(O)(=S)O[C@H]3[C@@H](O)[C@H](n4ccc(N)nc4=O)O[C@@H]3COP(O)(=S)O[C@H]3[C@@H](O)[C@H](n4ccc5c(=O)[nH]c(N)nc54)O[C@@H]3COP(O)(=S)O[C@H]3[C@@H](O)[C@H](n4ccc(=O)[nH]c4=O)O[C@@H]3COP(O)(=S)O[C@H]3[C@@H](O)[C@H](n4ccc(N)nc4=O)O[C@@H]3COP(O)(=S)O[C@H]3[C@@H](O)[C@H](n4ccc5c(=O)[nH]c(N)nc54)O[C@@H]3COP(O)(=S)O[C@H]3[C@@H](O)[C@H](n4ccc(=O)[nH]c4=O)O[C@@H]3CO)[C@@H](OP(O)(=S)OC[C@H]3O[C@@H](n4ccc(=O)[nH]c4=O)[C@H](O)[C@@H]3OP(O)(=S)OC[C@H]3O[C@@H](n4ccc5c(=O)[nH]c(N)nc54)[C@H](O)[C@@H]3OP(O)(=S)OCCC(O)CCOP(O)(=S)O[C@H]3[C@@H](O)[C@H](n4ccc5c(=O)[nH]c(N)nc54)O[C@@H]3COP(O)(=S)O[C@H]3[C@@H](O)[C@H](n4ccc(=O)[nH]c4=O)O[C@@H]3COP(O)(=S)O[C@H]3[C@@H](O)[C@H](n4ccc(N)nc4=O)O[C@@H]3COP(O)(=S)O[C@H]3[C@@H](O)[C@H](n4ccc(=O)[nH]c4=O)O[C@@H]3COP(O)(=S)O[C@H]3[C@@H](O)[C@H](n4ccc(=O)[nH]c4=O)O[C@@H]3COP(O)(=S)O[C@H]3[C@@H](O)[C@H](n4ccc(N)nc4=O)O[C@@H]3COP(O)(=S)O[C@H]3[C@@H](O)[C@H](n4ccc5c(=O)[nH]c(N)nc54)O[C@@H]3COP(O)(=S)O[C@H]3[C@@H](O)[C@H](n4ccc(=O)[nH]c4=O)O[C@@H]3COP(O)(=S)O[C@H]3[C@@H](O)[C@H](n4ccc(N)nc4=O)O[C@@H]3COP(O)(=S)O[C@H]3[C@@H](O)[C@H](n4ccc5c(=O)[nH]c(N)nc54)O[C@@H]3COP(O)(=S)O[C@H]3[C@@H](O)[C@H](n4ccc(=O)[nH]c4=O)O[C@@H]3CO)[C@H]2O)c(=O)n1` (some centres undefined), for which the Activity entry with spleen [1] and with spleen [4] was “Dose-dependent effect” each time. Also, the outcome (in data set [2]; with Dendritic cell; in data set [3]) was Active.
Consider `Nc1ccn([C@@H]2O[C@H](COP(O)(=S)O[C@H]3[C@@H](O)[C@H](n4ccc(=O)[nH]c4=O)O[C@@H]3COP(O)(=S)O[C@H]3[C@@H](O)[C@H](n4ccc(=O)[nH]c4=O)O[C@@H]3COP(O)(=S)O[C@H]3[C@@H](O)[C@H](n4ccc(N)nc4=O)O[C@@H]3COP(O)(=S)O[C@H]3[C@@H](O)[C@H](n4cnc5c(=O)[nH]c(N)nc54)O[C@@H]3COP(O)(=S)O[C@H]3[C@@H](O)[C@H](n4ccc(=O)[nH]c4=O)O[C@@H]3COP(O)(=S)O[C@H]3[C@@H](O)[C@H](n4ccc(N)nc4=O)O[C@@H]3COP(O)(=S)O[C@H]3[C@@H](O)[C@H](n4cnc5c(=O)[nH]c(N)nc54)O[C@@H]3COP(O)(=S)O[C@H]3[C@@H](O)[C@H](n4ccc(=O)[nH]c4=O)O[C@@H]3CO)[C@@H](OP(O)(=S)OC[C@H]3O[C@@H](n4ccc(=O)[nH]c4=O)[C@H](O)[C@@H]3OP(O)(=S)OC[C@H]3O[C@@H](n4cnc5c(=O)[nH]c(N)nc54)[C@H](O)[C@@H]3OP(O)(=S)OCC(O)COP(O)(=S)O[C@H]3[C@@H](O)[C@H](n4cnc5c(=O)[nH]c(N)nc54)O[C@@H]3COP(O)(=S)O[C@H]3[C@@H](O)[C@H](n4ccc(=O)[nH]c4=O)O[C@@H]3COP(O)(=S)O[C@H]3[C@@H](O)[C@H](n4ccc(N)nc4=O)O[C@@H]3COP(O)(=S)O[C@H]3[C@@H](O)[C@H](n4ccc(=O)[nH]c4=O)O[C@@H]3COP(O)(=S)O[C@H]3[C@@H](O)[C@H](n4ccc(=O)[nH]c4=O)O[C@@H]3COP(O)(=S)O[C@H]3[C@@H](O)[C@H](n4ccc(N)nc4=O)O[C@@H]3COP(O)(=S)O[C@H]3[C@@H](O)[C@H](n4cnc5c(=O)[nH]c(N)nc54)O[C@@H]3COP(O)(=S)O[C@H]3[C@@H](O)[C@H](n4ccc(=O)[nH]c4=O)O[C@@H]3COP(O)(=S)O[C@H]3[C@@H](O)[C@H](n4ccc(N)nc4=O)O[C@@H]3COP(O)(=S)O[C@H]3[C@@H](O)[C@H](n4cnc5c(=O)[nH]c(N)nc54)O[C@@H]3COP(O)(=S)O[C@H]3[C@@H](O)[C@H](n4ccc(=O)[nH]c4=O)O[C@@H]3CO)[C@H]2O)c(=O)n1` (some centres undefined), for which the result in data set [2] was inactive. The result in data set [3] was Active. The Activity result in the data set with PBMC [5], with PBMC [6], with PBMC [7], in the data set with PBMC [9], in the data set on PBMC [10] and in the data set with PBMC [11] was “Dose-dependent effect” in each case. Further, the remaining at 10 min in [8] came out at 56%.
